Experimental data published in patent US20210015764A1, “METHODS OF REDUCING INFLAMMATION OF THE DIGESTIVE SYSTEM WITH INHIBITORS OF HIF-2- ALPHA” (Peloton Therapeutics Inc., priority 2018, published 2021).
Where two headings read alike, the source gives them in different places.

How the values were obtained:
786-O-Hif-Luc cells = assay: Luciferase assay (HIF responsive element reporter); settings: 24 h
Method: A pool of infected cells were then selected against 2 g/mL of puromycin (P8833, Sigma) for 10 days followed by limited dilution to select single clones.
Each concentration was tested in triplicate. After about 24 hours, luciferase activity was determined using ONE-Glo Luciferase Assay Reagent (E6110, Promega) following the manufacturer's recommended procedure. EC50 were calculated using Dotmatics software.

[1] = molecular target: T1, HIF-2α HIS TAG-PASB Domain (Homo sapiens, UniProt Q99814); assay: HIF-2α Scintillation Proximity Assay (SPA); type: binding
T1 construct: 100 nM HIF-2α HIS TAG-PASB Domain
Method: The total assay volume was about 100 μL in the following configuration: 2 μL compound in 100% DMSO, 88 μL buffer with protein and probe and 10 μL of SPA beads. […] The percent inhibition was determined and IC50 values were calculated using the Dotmatics system based on the following equation: % inhibition=[(high control−sample)/(high control−low control)]×100.

786-O cells = assay: VEGF ELISA assay; type: cell-based; settings: Homo sapiens, 786-0, VEGF in culture medium
Method: Each concentration was plated in duplicate. About 20 hours later, medium was removed by suction and each well was supplied with 180 μL of growth medium. About 20 μl freshly-made 10× compound stocks were added to each well. […] The EC50 was calculated by GraphPad Prism using the dose-response-inhibition (four parameter) equation. The cell-seeded plate was then subjected to CellTiter-Glo luminescence cell viability assay (Promega) by adding 50 μL of Celltiter Glo reagent into each well and shaking the plate for 8 minutes at 550 rpm (Thermomixer R, Eppendorf) then the luminescence signal immediately read in a plate reader (3 second delay, 0.5 second/well integration time, Synergy 2 multi Detection Microplate reader).

DSS induced colitis = assay: DSS-induced model of colitis, two DSS cycles (Example 12); type: in vivo; settings: female C57BI6 mice, Compound 231 60 mg/kg BID, filgotinib 30 mg/kg QD; for colon length: day 27
Method: 6-8 week old female C57BI6 mice were tagged and weighed, then treated with 2% dextran sulfate sodium (DSS) for 6 days. A 2 week recovery phase of regular water was completed over days 7-19. […] Mice were monitored daily and scored for body weight loss, stool consistency/diarrhea, and blood in the feces/rectum. The disease activity index was calculated according to Table 4. The second DSS cycle and treatment regimen continued for 7 days, and then on day 27 the animals were sacrificed. Colons were harvested and the texture, appearance and length of the colons assessed. Colon tissues were prepared for H&E histology, immune gene expression analysis, and immune phenotyping of immune cell infiltrate by flow cytometry. [table]

[2] = read-out: Mean Luciferase EC50 (nM)
[3] = probe displacement from HIF-2α PAS-B domain, read-out: Scintillation Proximity Assay IC50
[4] = read-out: Mean Luciferase EC50 (nM), 786-O-Hif-Luc cells, about 24 hours

T1 sequence (Q99814 240-350 limits assumed): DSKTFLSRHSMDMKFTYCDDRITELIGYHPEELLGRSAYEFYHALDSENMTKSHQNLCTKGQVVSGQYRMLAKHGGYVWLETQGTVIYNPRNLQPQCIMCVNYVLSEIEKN

Structure (SMILES) | EC50 (786-O-Hif-Luc cells; [2]) [nM] | also measured
NS(=O)(=O)c1ccc(Oc2cc(F)cc(F)c2)c2c1[C@H](O)C(F)(F)C2 [Compound 256] | < 50 | –
O=S(=O)(c1ccc(OC2=CC=CN3CC=NC23)c2c1C(O)C(F)(F)C2)C(F)(F)F (stereo not shown) [Compound 246] | – | IC50 [1, 3]: > 1000 nM
N#Cc1ccc(Oc2cc(F)cc(F)c2)c2c1[C@H](O)C(F)(F)C2 [Compound 67] | – | EC50 (786-O cells): 50 to 249 nM
C[C@H]1C[C@@H](O)c2c(S(=O)(=O)C(F)F)ccc(Oc3cc(F)cc(Cl)c3)c21 [Compound 7a] | 250 to 1000 | –
N#Cc1cc(F)cc(Oc2ccc(S(=O)(=O)C(F)F)c3c2CCC3O)c1 (stereo not shown) [Compound 78] | – | EC50 (786-O cells): 250 to 1000 nM
N#Cc1cncc(Oc2ccc(S(=O)(=O)C(F)(F)F)c3c2CC(F)(F)[C@H]3O)c1 [Compound 235] | < 50 | –
N#Cc1cc(Cl)cc(Oc2ccc(S(=O)(=O)CF)c3c2CC(F)(F)[C@H]3O)c1 [Compound 167] | < 50 | –
O=S(=O)(c1ccc(OC2CC(O)C2)c2c1[C@H](O)C(F)(F)C2)C(F)(F)F (stereo partly shown) [Compound 644] | – | EC50 (786-O-Hif-Luc cells; [4]): 250 to 1000 nM
N#Cc1cc(F)cc(Oc2ccc(S(N)(=O)=O)c3c2CC(F)(F)[C@H]3O)c1 [Compound 252] | 50 to 249 | –
CS(=O)(=O)c1ccc(Oc2cc(F)cc(C#N)c2)c2c1[C@H](N)C(F)(F)C2 [Compound 165] | 50 to 249 | –
CS(=O)(=O)c1ccc(Oc2cc(F)cc(C#N)c2)c2c1C(O)C(F)C2 (stereo not shown) [Compound 232] | < 50 | –
N#Cc1cc(F)cc(Oc2ccc(S(N)(=O)=O)c3c2[C@H](F)C(F)(F)[C@H]3O)c1 [Compound 339] | 250 to 1000 | –
CCS(=O)(=O)c1ccc(Oc2cc(F)cc(C#N)c2)c2c1[C@H](O)C(F)(F)C2 [Compound 206] | 50 to 249 | –
O=C1CCC(Oc2ccc(S(=O)(=O)C(F)(F)F)c3c2CC(F)(F)[C@H]3O)CN1 (stereo partly shown) [Compound 719] | – | IC50 [1, 3]: > 1000 nM
CS(=O)(=O)c1ccc(Oc2cc(F)cc(C#N)c2)c2c1C(O)C(F)(F)C2 (stereo not shown) [Compound 223] | 50 to 249 | –
O=S(=O)(c1ccc(Oc2cc(F)cc(Cl)c2)c2c1[C@H](O)CC2)C(F)F [Compound 1] | – | EC50 (786-O cells): 250 to 1000 nM
CS(=O)(=O)c1ccc(Oc2cc(F)cc(C#N)c2)c2c1[C@H](O)[C@H](F)C2 [Compound 231] | < 50 | colon length (DSS induced colitis): greatest improvement in colon length
CS(=O)(=O)c1ccc(Oc2cc(F)cc(C#N)c2)c2c1[C@H](O)C(F)(F)C2 [Compound 163, (S)-3-((2,2-difluoro-1-hydroxy-7-(methylsulfonyl)-2,3-dihydro-1H-inden-4-yl)oxy)-5-fluorobenzonitrile] | < 50 | –
COCc1c(S(=O)(=O)C(F)F)ccc(Oc2cc(F)cc(Cl)c2)c1Cl [Compound 44] | – | IC50 [1]: > 1000 nM
O=C(Nc1nc2cccc(-c3ccc(CN4CCS(=O)(=O)CC4)cc3)n2n1)C1CC1 [filgotinib] | – | colon length (DSS induced colitis): This effect was reversed; disease activity index score (DSS induced colitis; second DSS cycle ([…] DSS, 7 days), vehicle group 6-7): slight decrease in the disease activity index, but only in the later stage of the disease progression
N#Cc1cc(F)cc(Oc2ccc(S(=O)(=O)C(F)(F)F)c3c2CC[C@H]3O)c1 [Compound 57] | 50 to 249 | –
O=S(=O)(c1ccc(Oc2cc(F)cc(Cl)c2)c2c1C(O)CC2)C(F)F (stereo not shown) [Compound 17] | – | EC50 (786-O cells): 50 to 249 nM
CNS(=O)(=O)c1ccc(Oc2cc(F)cc(F)c2)c2c1[C@H](O)C(F)(F)C2 [Compound 251] | 50 to 249 | –

Structure (SMILES) | EC50 (786-O-Hif-Luc cells; [2]) [nM] | also measured
N#Cc1cc(F)cc(-c2cnc(C(F)(F)F)c3c2C[C@@H](F)[C@H]3O)c1 [Compound 471] | – | IC50 [1, 3]: 250 to 1000 nM
CS(=O)(=O)c1ccc(Oc2cc(F)cc(C#N)c2)c2c1[C@H](O)[C@@H](F)C2 [Compound 271] | 250 to 1000 | –
[2H]C([2H])([2H])S(=O)(=O)c1ccc(Oc2cc(F)cc(C#N)c2)c2c1[C@]([2H])(O)C(F)(F)C2 [Compound 229] | < 50 | –
CS(=O)(=O)c1ccc(Oc2cc(F)cc(C#N)c2)c2c1[C@H](O)[C@H](F)[C@@H]2F [Compound 289, 3-[(1S,2S,3R)-2,3-difluoro-1-hydroxy-7-methylsulfonyl-indan-4-yl]oxy-5-fluoro-benzonitrile] | < 50 | –
N#Cc1cccc(Oc2ccc(S(=O)(=O)C(F)F)c3c2CC[C@H]3O)c1 [Compound 156] | 250 to 1000 | –
O=S(=O)(c1ccc(Oc2cc(F)cc(Cl)c2)c(C(F)F)c1)C(F)(F)F [Compound 124] | 250 to 1000 | EC50 (786-O cells): 250 to 1000 nM
N#Cc1cc(F)cc(Oc2ccc(S(=O)(=O)C(F)F)c3c2CC[C@H]3O)c1 [Compound 155] | 50 to 249 | EC50 (786-O cells): 50 to 249 nM
N#Cc1cc(F)cc(Oc2ccc(S(=O)(=O)C(F)(F)F)c3c2CC(F)(F)[C@H]3N)c1 [Compound 290] | 50 to 249 | –
O=S(=O)(c1ccc(OC2CCOCC2)c2c1[C@@H](O)C(F)(F)C2)C(F)F [Compound 782] | – | EC50 (786-O-Hif-Luc cells; [4]): 50 to 249 nM; IC50 [1, 3]: 50 to 249 nM
O=S1(=O)c2ccc(OC3CCOCC3)c(C(F)F)c2C(O)C1(F)F (stereo not shown) [Compound 400] | – | EC50 (786-O-Hif-Luc cells; [4]): > 1000 nM; IC50 [1, 3]: > 1000 nM
CS(=O)(=O)c1ccc(Oc2cc(F)cc(C#N)c2)c2c1[C@@H](O)C(F)(F)C2 [Compound 226] | > 1000 | –
N#Cc1cc(F)cc(Oc2ccc(S(N)(=O)=O)c3c2[C@@H](F)C(F)(F)[C@H]3O)c1 [Compound 338] | < 50 | –
[2H][C@]1(O)c2c(S(C)(=O)=O)ccc(Oc3cc(F)cc(C#N)c3)c2CC1(F)F [Compound 247] | < 50 | –
CC(C)(C)OC(=O)NC1CC(Oc2ccc(S(=O)(=O)C(F)(F)F)c3c2CC(F)(F)[C@H]3O)C1 (stereo partly shown) [Compound 722] | – | EC50 (786-O-Hif-Luc cells; [4]): > 1000 nM
CS(=O)(=O)c1ccc(Oc2cc(Cl)cc(C#N)c2)c2c1[C@H](O)C(F)(F)C2 [Compound 234] | < 50 | EC50 (786-O cells): 50 to 249 nM
N#Cc1cc(F)cc(Oc2ccc3c(c2Br)C(N)C(F)(F)S3(=O)=O)c1 (stereo not shown) [Compound 376] | – | EC50 (786-O-Hif-Luc cells; [4]): > 1000 nM; IC50 [1, 3]: < 50 nM
CCCNc1ccc(S(=O)(=O)C(F)F)c2c1CC(F)(F)[C@H]2O [Compound 532] | – | EC50 (786-O-Hif-Luc cells; [4]): 250 to 1000 nM; IC50 [1, 3]: < 50 nM
O=S(=O)(c1ccc(Oc2cc(F)cc(Cl)c2)c2c1[C@H](O)C[C@@H]2CO)C(F)(F)F [Compound 281] | – | IC50 [1, 3]: 250 to 1000 nM
N#Cc1cc(F)cc(Oc2ccc(S(=O)(=O)C(F)(F)F)c3c2CCC3O)c1 (stereo not shown) [Compound 258] | > 1000 | –
CNS(=O)(=O)c1ccc(Oc2cc(F)cc(C#N)c2)c2c1[C@H](O)C(F)(F)C2 [Compound 254] | 50 to 249 | –
N#Cc1cc(F)cc(Oc2ccc(S(=O)(=O)C(F)(F)F)c3c2C[C@@H](F)[C@H]3O)c1 [Compound 227] | – | EC50 (786-O-Hif-Luc cells; [4]): < 50 nM
O=S(=O)(c1ccc(Oc2cc(F)cc(Cl)c2)c(Cl)c1CO)C(F)F [Compound 41] | 250 to 1000 | EC50 (786-O cells): 250 to 1000 nM
